Legend:
[1] = tested on: RKO; test: Alamar blue cell proliferation assay, RKO; type: cell-based, human; details: 72 h, read-out: IC50 Assay B (Alamar blue cell proliferation)
Protocol: The effects of RgA on cell growth, survival, and cell death was then determined. […] Treatment with 5 μM of RgA caused an increase in G1 phase by approximately 23% in comparison to control and approximately 7% and 17% decreases in cells in S and G2/M phases, respectively. The induction in G1 phase cell cycle arrest by RgA is dose-dependent (FIG. 5A, FIG. 16). […] Jones and Thompson, Genes Dev. 2009, 23, 537-548. […] The IC50 values of RgA against several human cancer cell lines also was determined using the alamar blue cell proliferation assay.
Cells were seeded into a 96-well plate (Costar) in 180 μL culture media. After an overnight recovery, drugs were added and incubated for 72 h. After drug incubation, cells were added with 20 μL of alamar blue reagent and the plates were incubated at 37° C. for 6 h before reading the fluorescence (544 nm Ex/590 nm Em) with a plate reader. GraphPad Prism (v4.03) software was used to determine IC50 values using a four parameter logistic regression.

[2] = tested on: PANC10.05; test: [3H]-2DG uptake assay in PANC10.05 cells; type: cell-based, human; details: PANC 10.05
Protocol: Hay, Nat. Rev. […] To determine whether RgA could inhibit glucose uptake in cancer cell lines in addition to A549, the impact of RgA on [3H]-2DG uptake in six other cancer cell lines, including HCC1954, MCF-7, PANC10.05, Jurkat T, HeLa, and RKO was measured (FIG. 3A, Table 3).
The inhibitory activity of compounds on glucose transport was analyzed by measuring the cell uptake of [3H]-2DG as previously described. Ulanovskaya et al., Chem. Biol. 2011, 18, 222-230. Briefly, cells were washed twice and incubated in low-glucose medium for 10 min. Cells were added drugs and incubated for another 10 min before adding [3H]-2DG. After 10 min incubation with [3H]-2DG, cells were washed twice and lysed with 0.2 N NaOH plus 0.2% SDS. The cell lysate was transferred to a new tube containing 1 mL of optiphase supermix. Glucose uptake was quantified with a scintillation counter.

- IC50 [2]: 0.0095 µM
SMILES: CCC(C)C1C(=O)NCC(=O)N(C)CCC=CC(=O)OCC(C)(C)C(=O)C(=O)N2CCCCC2C(=O)OC(CCc2ccc(OC)c(OC)c2)c2cccc(c2)NC(=O)CCC(=O)N(C)C(CC(C)C)C(=O)NC(Cc2ccccc2)C(=O)N1C (centres unmarked) [JW11-D2, Rapaglutin A]
- IC50 [1]: 0.115 µM

Reference: patent US12649980B2, “Three-dimensional surface for protein and small molecule microarrays” (The Johns Hopkins University, priority 2019, dated 2026)
